Results as given in patent US20030125569A1, “Use of packing strip as a holographic data carrier” (priority 2002, published 2003).

Tests used:
[1] = Estimated water content of crystalline forms after exposure to an atmosphere of defined relative humidity; assay type: physicochemical; conditions: (3R,5S)-enantiomer; form obtained from Form E by exposure to defined relative humidity (A: 0 to 20%; B1/B2: 20 to 55%; C: 75%; D: 90%); monosodium salt
Procedure: The preparation of crystalline polymorphic Forms A, B1, B2, C and D is usually carried out by using Form E as the starting compound and by exposing Form E to an atmosphere having a defined relative humidity. Depending on the relative humidity used the different forms can be obtained.
Form E of Fluvastatin sodium ((3R,5S)-enantiomer) is first exposed to an atmosphere having a relative humidity of 90% for about 4 hours and subsequently to an atmosphere of 0 to 20% for about 90 minutes. This treatment leads to Form A of the (3R,5S)-enantiomer with an estimated water content of 0 to 5%. The above treatment can be carried out in an X-ray diffractometer in which the relative humidity of the atmosphere can be controlled during the measurement. X-ray powder diffraction studies show the product to be polymorphic Form A (see FIG. 1).
Form E of Fluvastatin sodium ((3R,5S)-enantiomer) is first exposed to an atmosphere having a relative humidity of 90% for about 4 hours and subsequently to an atmosphere of 20 to 55% for about 3 hours. This treatment leads to either Form B1 or Form B2 of the (3R,5S)-enantiomer with an estimated water content of 5 to 15%. The above treatment can be carried out in an X-ray diffractometer in which the relative humidity of the atmosphere can be controlled during the measurement. […]

[2] = target: T1, 3-hydroxy-3-methylglutaryl coenzyme A (HMG-CoA) (Homo sapiens, UniProt P04035); conditions: O. Tempkin et al., Tetrahedron 1997, vol. 53, pages 10659-10670; cited from earlier work
T1 sequence (P04035 1-888): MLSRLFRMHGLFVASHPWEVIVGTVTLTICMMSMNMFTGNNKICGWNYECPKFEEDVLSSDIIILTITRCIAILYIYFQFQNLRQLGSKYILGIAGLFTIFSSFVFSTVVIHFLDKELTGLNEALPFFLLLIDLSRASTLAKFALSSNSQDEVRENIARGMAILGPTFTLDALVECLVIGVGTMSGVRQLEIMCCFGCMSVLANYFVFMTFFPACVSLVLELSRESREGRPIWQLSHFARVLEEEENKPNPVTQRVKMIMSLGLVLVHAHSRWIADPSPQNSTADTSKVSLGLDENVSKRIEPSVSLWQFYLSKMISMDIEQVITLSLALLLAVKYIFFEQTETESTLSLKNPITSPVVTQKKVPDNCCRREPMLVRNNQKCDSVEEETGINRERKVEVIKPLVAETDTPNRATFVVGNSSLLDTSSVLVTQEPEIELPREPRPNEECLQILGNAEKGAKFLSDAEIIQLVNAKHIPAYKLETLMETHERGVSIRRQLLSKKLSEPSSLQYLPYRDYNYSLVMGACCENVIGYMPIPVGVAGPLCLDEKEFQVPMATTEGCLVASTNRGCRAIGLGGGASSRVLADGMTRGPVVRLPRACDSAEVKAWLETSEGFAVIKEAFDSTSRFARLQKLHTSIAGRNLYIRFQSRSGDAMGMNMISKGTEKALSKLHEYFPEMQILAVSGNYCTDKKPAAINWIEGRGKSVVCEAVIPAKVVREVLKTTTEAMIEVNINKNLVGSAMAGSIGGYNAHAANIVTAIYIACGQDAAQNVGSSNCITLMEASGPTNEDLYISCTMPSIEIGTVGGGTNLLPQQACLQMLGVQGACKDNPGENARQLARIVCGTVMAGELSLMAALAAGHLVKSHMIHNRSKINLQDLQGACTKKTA

estimated water content [1] [%]	Structure (SMILES)	biological potency among enantiomers [2]
30	CC(C)n1c(/C=C/[C@@H](O)C[C@@H](O)CC(=O)[O-])c(-c2ccc(F)cc2)c2ccccc21.[Na+] (single isomer, unassigned) [Form D, (3R,5S)- or (3S,5R)-7-(3-(4-fluorophenyl)-1-(1-methylethyl)-1H-indol-2-yl)-3,5-dihydroxy-6-heptenoic acid monosodium salt]	–
–	CC(C)n1c(/C=C/[C@@H](O)C[C@@H](O)CC(=O)[O-])c(-c2ccc(F)cc2)c2ccccc21.[Na+] (single isomer, unassigned; enantiomer 7) [(3R,5S)-enantiomer, 7-(3-(4-fluorophenyl)-1-(1-methylethyl)-1H-indol-2-yl)-3,5-dihydroxy-6-heptenoic acid monosodium salt]	biologically most potent enantiomer
